Literature values in patent US7709654B2, “Process for producing oxazole, imidazole, pyrrazole boryl compounds” (Board of Trustees of Michigan State University, priority 2006, dated 2010).

Target: T1, cyclooxygenase-2 (COX-2) (Homo sapiens, UniProt P35354)
T1 sequence (P35354 18-604): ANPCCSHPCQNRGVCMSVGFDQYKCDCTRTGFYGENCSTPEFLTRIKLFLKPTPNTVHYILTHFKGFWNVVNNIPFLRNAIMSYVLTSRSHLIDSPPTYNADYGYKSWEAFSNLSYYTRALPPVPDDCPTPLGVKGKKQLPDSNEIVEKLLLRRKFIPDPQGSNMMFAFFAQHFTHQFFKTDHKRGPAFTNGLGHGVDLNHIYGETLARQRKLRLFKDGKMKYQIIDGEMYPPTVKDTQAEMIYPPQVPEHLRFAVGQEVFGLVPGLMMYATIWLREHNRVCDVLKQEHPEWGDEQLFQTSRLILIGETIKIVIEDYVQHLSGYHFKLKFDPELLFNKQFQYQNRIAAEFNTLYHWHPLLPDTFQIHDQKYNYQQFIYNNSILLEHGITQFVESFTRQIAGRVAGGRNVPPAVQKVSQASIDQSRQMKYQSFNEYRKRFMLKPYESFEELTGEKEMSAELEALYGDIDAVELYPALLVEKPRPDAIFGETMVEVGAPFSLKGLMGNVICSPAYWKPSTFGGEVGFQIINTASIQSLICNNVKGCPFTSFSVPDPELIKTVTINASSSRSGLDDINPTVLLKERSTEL
Conditions: COX-2 versus COX-1

Compound: Cc1nc(C2CCCCC2)c(-c2ccc(S(N)(=O)=O)c(F)c2)o1 [JTE-522, 4-(4-cyclohexyl-2-methyloxazol-5-yl)-2-fluorobenzenesulfonamide]
- COX-2 inhibition (in words): potent, highly selective, and orally active COX-2 inhibitor
